Test [1] concerns recombinant oxidoreductase from Pichia capsulata. The experiment in a line: Preparative conversions with recombinant oxidoreductase. It is filed as biochemical. The settings on record: for share of the substrate used that was reduced: after 24 h at room temperature, isopropanol as cosubstrate, NAD; for enantiomeric excess of the recovered product: preparative batch, 24 h at room temperature. Here is the method: For the preparative batch, a mixture of […] of a buffer (100 mM TEA, pH=7, 1 mM ZnCl2, 10% glycerol), 4 1 isopropanol, 4 1 4-chloroacetoacetate, 4 g NAD and 3.6 million U of recombinant oxidoreductase from Pichia capsulata was incubated for 24 h at room temperature under constant mixing. […] Subsequently, the reaction mixture was extracted with ethyl acetate, the solvent was removed by means of a rotary evaporator and the raw product was distilled.
For the preparative batch, a mixture of 164 ml of a buffer (100 mM TEA, pH=7, 1 mM ZnCl2, 20% glycerol), 16 ml isopropanol, 20 g 2-chloro-1-(3-chlorophenyl)ethane-1-one dissolved in 20 ml methyl tert-butyl ether (MTBE), 10 mg NAD and 20,000 U of recombinant oxidoreductase from Pichia capsulata was incubated for 24 h at room temperature under constant mixing. […] Subsequently, the reaction mixture was extracted with ethyl acetate, and the solvent was removed using the rotary evaporator.

Test [2] has as its system oxidoreductase according to the invention. The experiment in a line: Substrate spectrum (relative enzyme activity with different substrates). It is filed as biochemical, Pichia capsulata. The settings on record: activity with ethyl-4-chloroacetoacetate = 100%. Here is the method: Incubation lasted for about 2 to 3 min, thereupon 100 μl of a substrate solution (100 mM ethyl-4-chloro-3-oxobutanoate were added.
The substrate spectrum of the oxidoreductase according to the invention was determined by measuring the enzyme activity with a number of ketones, oxoacids and esters thereof. […] The activity with ethyl-4-chloroacetoacetate was equalled to 100% and all the other substrates were set in relation thereto.

For test [3] the test system is unchanged. The experiment in a line: Enantiomeric excess of the alcohol formed from selected substrates (GC). It is filed as biochemical, Pichia capsulata. The conditions noted are these: 24 h. How it is done:
For the determination of the ee-value, the following reaction batch was used for selected substrates.
The batches for ee-determination were extracted with chloroform after 24 h and the enantiomeric excess of the resulting alcohol was determined via GC.

We go through 23 molecules from patent US7575909B2, “Oxidoreductase from pichia capsulata” (IEP GmbH, priority 2003, dated 2009).

Structures are written as SMILES.

Take `O=C(CCl)c1cccc(Cl)c1` [2-Chloro-1-(3-chlorophenyl)ethane-1-one]: in test [1], the “share of the substrate used that was reduced” value was 96%. Also, the Relative activity % in test [2] was 21%. Moreover, the Stereoselectivity in test [3] (R-alcohol in excess) turned out to be 100% R.

Regarding `CCCCCCCC(=O)c1ccccc1` [Caprylophenone], the Relative activity % in test [2] is listed as 0%.

As to `COC(=O)CCCCC(=O)CC(=O)OC` [Dimethyl-3-oxo-1,8-octandioic acid], the Relative activity % in test [2] was found to be 3.5%.

For the molecule `CC(=O)c1ccccc1` [Acetophenone], the Relative activity % in test [2] is on record as 4%.

As for `CCOC(=O)CC(=O)CC` [Ethyl-3 oxovaleriate], in test [2], the Relative activity % amounted to 67%.

Take `CCCC(=O)C(=O)OCC` [Ethyl-2-oxovaleriate]: in test [2], the Relative activity % amounted to 41%. This molecule displayed a Stereoselectivity in test [3] (S-alcohol in excess) of 97% S.

As to `CCOC(=O)CC(=O)CCl` [Ethyl-4-chloroacetoacetate], the “share of the substrate used that was reduced” value in test [1] worked out at 99%. Further, in test [2], the Relative activity % amounted to 100%. In addition, in test [3] (R-alcohol in excess), the Stereoselectivity is 99% R.

As to `CCCCCC(=O)CC` [3-Octanone], in test [2], the Relative activity % was 30%.

For `O[C@@H](CCl)c1cccc(Cl)c1` [(R)-2-chloro-1-(3-chlorophenyl)ethane-1-ol], the “enantiomeric excess of the recovered product” value in test [1] was 100%.

For `CCOC(=O)CCCCC(=O)CCCl` [Ethyl-8-chloro-6-oxooctanoic acid], the Relative activity % in test [2] is recorded as 20%. For the same molecule, the Stereoselectivity in test [3] (R-alcohol in excess) came out at 100% R.

In the case of `CCCC(=O)C(=O)O` [2-Oxovaleric acid], the Relative activity % in test [2] turned out to be 0%.

On to `CCOC(=O)C[C@@H](O)CCl` [ethyl-(R)-4-chloro-3-hydroxybutanoate], for which the “enantiomeric excess of the recovered product” value in test [1] turned out to be 99%.

As to `CC(=O)CCO` [4-Hydroxy-2-butanone], in test [2], the Relative activity % stood at 99%. This molecule yielded a Stereoselectivity in test [3] (S-alcohol in excess) of 90% S.

Turning to `CCC(=O)C(=O)O` [2-Oxobutanoic acid], the Relative activity % in test [2] was found to be 0%.

With `CC(=O)Cc1ccccc1` [1-Phenyl-2-propanone], in test [2], the Relative activity % is recorded as 24%. This molecule had a Stereoselectivity in test [3] (S-alcohol in excess) of 97% S.

For the molecule `COC(=O)CC(C)=O` [Methyl acetoacetate], the Relative activity % in test [2] was found to be 150%. In test [3] (S-alcohol in excess), this molecule came in with a Stereoselectivity of 97% S.

In the case of `CCC(C)=O` [2-Butanone], the Relative activity % in test [2] was 99%. This molecule also registered a Stereoselectivity in test [3] (S-alcohol in excess) of 50% S.

As for `CCOC(=O)C(=O)CCc1ccccc1` [Ethyl-2-oxo-4-phenylbutanoic acid], the Relative activity % in test [2] worked out at 76%. This molecule came in with a Stereoselectivity in test [3] (S-alcohol in excess) of 95% S.

`O=C(O)C(=O)Cc1ccccc1` [2-Oxo-3-phenyl propionic acid]: the Relative activity % in test [2] came to 0%.

In the case of `CCOC(=O)C(C)=O` [Ethyl pyruvate], in test [2], the Relative activity % came out at 10%. In test [3] (S-alcohol in excess), this molecule yielded a Stereoselectivity of 100% S.

Regarding `CCOC(=O)CC(C)=O` [Ethyl acetoacetate], in test [2], the Relative activity % was found to be 100%. The same molecule displayed a Stereoselectivity in test [3] (S-alcohol in excess) of 99% S.

Turning to `CCOC(=O)C(=O)c1ccccc1` [Ethyl phenyl glyoxylate], in test [2], the Relative activity % is 5.2%. Besides, in test [3] (R-alcohol in excess), the Stereoselectivity is given as 100% R.

On to `CCCCCCC(C)=O` [2-Octanone], for which, in test [2], the Relative activity % is 88%. Besides, the Stereoselectivity in test [3] (S-alcohol in excess) is given as 100% S.
